{
  "source": "patent US11365227B2",
  "about": "“Peptide and pharmaceutical compositions of same for use as an antimicrobial and in cancer treatment” (UNIVERSITAT DE VALÈNCIA, priority 2017, dated 2022)",
  "key": {"MDA-MB-231 cells [1]": {"tested_on": "MDA-MB-231 cells", "assay": "Cell proliferation analysis by flow cytometry with Oregon Green", "format": "cell-based, human", "conditions": "50 μM (200 μg/mL)", "protocol": "A cell proliferation analysis was performed by flow cytometry for tumour cells marked with the fluorophore Oregon Green subsequently treated with a concentration of 50 μM (200 μg/mL) of the peptide PaSK or with H2O as control. This analysis allowed exploring the use of PaSK in a combined therapeutic approach. The combined use of therapeutic agents meant to inhibit tumour growth and maintenance and agents capable of stimulating the patient's immune response in the treatment of cancer is an alternative therapeutic approach to conventional approaches based only on cytotoxic agents for reducing the impact of the two main problems associated with the exclusive use of cytotoxic agents in cancer therapy: non-specific toxicity and the appearance of resistance.\nThe reagent Oregon Green is covalently bonded to free amine groups of cells, conferring on same a homogeneous fluorescence that is distributed among the daughter cells in each cell division. As the fluorescence intensity of the cells is approximately halved with each cell division, the final fluorescence intensity after treatment with the peptide and in non-treated control cells compared to the initial fluorescence intensity of the cells provides information on how many cell division cycles have occurred in each case."}, "MDA-MB-231 cells [2]": {"tested_on": "MDA-MB-231 cells", "assay": "Differential proteomic analysis by SWATH", "format": "cell-based, human"}},
  "note": "Like-named read-outs stand apart in the source and are kept apart here. Where a SMILES comes first, the peptide text is derived from it.",
  "data": [
    {"molecule": "CC[C@H](C)[C@H](NC(=O)[C@H](CCCNC(=N)N)NC(=O)[C@H](CCCNC(=N)N)NC(=O)[C@H](CCCCN)NC(=O)[C@H](CC(N)=O)NC(=O)[C@H](CS)NC(=O)[C@H](Cc1ccc(O)cc1)NC(=O)CNC(=O)CNC(=O)[C@H](CCCNC(=N)N)NC(=O)[C@H](CCCCN)NC(=O)[C@H](CCCNC(=N)N)NC(=O)[C@H](CCCCN)NC(=O)[C@H](CC(C)C)NC(=O)[C@H](CC(C)C)NC(=O)[C@H](CS)NC(=O)[C@H](Cc1c[nH]cn1)NC(=O)[C@H](C)NC(=O)[C@H](C)NC(=O)[C@H](CS)NC(=O)[C@H](C)NC(=O)[C@H](C)NC(=O)[C@H](Cc1c[nH]cn1)NC(=O)[C@H](CC(N)=O)NC(=O)[C@@H](NC(=O)[C@@H](N)CCCCN)C(C)C)C(=O)N[C@@H](CS)C(=O)N[C@H](C(=O)N[C@@H](CS)C(=O)N[C@@H](CCCNC(=N)N)C(=O)N[C@@H](CC(N)=O)C(=O)O)C(C)C", "note": "[PaSK] (H-KVNHAACAAHCLLKRKRGGYCNKRRICVCRN-OH; N-terminus and C-terminus assumed)", "values": [
      {"measurement": "cell proliferation (Oregon Green fluorescence intensity)", "setting": "MDA-MB-231 cells [1]", "value": "inhibits proliferation"},
      {"measurement": "T/C change ratio", "setting": "MDA-MB-231 cells [2]", "value": 1.45},
      {"measurement": "T/C change ratio", "setting": "MDA-MB-231 cells [2]; ASNA_HUMAN, ATPase ASNA1", "value": 0.21},
      {"measurement": "T/C change ratio", "setting": "MDA-MB-231 cells [2]; BAZ1B_HUMAN, Tyrosine-protein kinase BAZ1B", "value": 0.31},
      {"measurement": "T/C change ratio", "setting": "MDA-MB-231 cells [2]; CALD1_HUMAN, Caldesmon", "value": 0.71},
      {"measurement": "T/C change ratio", "setting": "MDA-MB-231 cells [2]; CDCP1_HUMAN, Protein 1 containing domain CUB", "value": 1.22},
      {"measurement": "T/C change ratio", "setting": "MDA-MB-231 cells [2]; CK068_HUMAN, UPF0696 protein C11orf68", "value": 0.83},
      {"measurement": "T/C change ratio", "setting": "MDA-MB-231 cells [2]; DCUP_HUMAN, Uroporfphyrinogen decarboxylase", "value": 0.21},
      {"measurement": "T/C change ratio", "setting": "MDA-MB-231 cells [2]; DDX17_HUMAN, Probable DDX17 ATP-dependent RNA helicase", "value": 0.84},
      {"measurement": "T/C change ratio", "setting": "MDA-MB-231 cells [2]; DENR_HUMAN, Density regulated protein", "value": 0.31},
      {"measurement": "T/C change ratio", "setting": "MDA-MB-231 cells [2]; DHX36_HUMAN, DHX36 ATP-dependent RNA helicase", "value": 0.27},
      {"measurement": "T/C change ratio", "setting": "MDA-MB-231 cells [2]; DPOD1_HUMAN, DNA polymerase delta catalytic subunit", "value": 0.50},
      {"measurement": "T/C change ratio", "setting": "MDA-MB-231 cells [2]; EIF3B_HUMAN, Eukaryotic translation initiation factor 3B (EIF3B)", "value": 0.84},
      {"measurement": "T/C change ratio", "setting": "MDA-MB-231 cells [2]; FXR1_HUMAN, Fragile X mental retardation protein 1", "value": 0.76},
      {"measurement": "T/C change ratio", "setting": "MDA-MB-231 cells [2]; GPX1_HUMAN, Glutathione peroxidase 1 (GPX1)", "value": 5.89},
      {"measurement": "T/C change ratio", "setting": "MDA-MB-231 cells [2]; KAD2_HUMAN, Adenylate kinase 2, mitochondrial", "value": 0.51},
      {"measurement": "T/C change ratio", "setting": "MDA-MB-231 cells [2]; LARP1_HUMAN, La related protein 1 (LARP1)", "value": 0.28},
      {"measurement": "T/C change ratio", "setting": "MDA-MB-231 cells [2]; MANF_HUMAN, Mesencephalic astrocyte-derived neurotrophic factor", "value": 0.63},
      {"measurement": "T/C change ratio", "setting": "MDA-MB-231 cells [2]; MMP14_HUMAN, Matrix metalloprotease-14", "value": 1.92},
      {"measurement": "T/C change ratio", "setting": "MDA-MB-231 cells [2]; PYRG1_HUMAN, CTP synthase 1", "value": 0.82},
      {"measurement": "T/C change ratio", "setting": "MDA-MB-231 cells [2]; RL5_HUMAN, 60 S ribosomal protein L5 (RPSL5)", "value": 0.60},
      {"measurement": "T/C change ratio", "setting": "MDA-MB-231 cells [2]; RS13_HUMAN, 40S ribosomal protein S13 (RPS13)", "value": 0.82},
      {"measurement": "T/C change ratio", "setting": "MDA-MB-231 cells [2]; SDCB1_HUMAN, Sintenin-1", "value": 1.43},
      {"measurement": "T/C change ratio", "setting": "MDA-MB-231 cells [2]; SET_HUMAN, SET protein", "value": 0.90},
      {"measurement": "T/C change ratio", "setting": "MDA-MB-231 cells [2]; SH3G1_HUMAN, Endophilin-A2", "value": 0.63},
      {"measurement": "T/C change ratio", "setting": "MDA-MB-231 cells [2]; SHLB2_HUMAN, Endophilin-B2", "value": 0.29},
      {"measurement": "T/C change ratio", "setting": "MDA-MB-231 cells [2]; SQRD_HUMAN, Sulphide: quinone oxidoreductase (SQRDL), mitochondrial", "value": 1.30},
      {"measurement": "T/C change ratio", "setting": "MDA-MB-231 cells [2]; TAGL2_HUMAN, Transgelin-2", "value": 0.75},
      {"measurement": "T/C change ratio", "setting": "MDA-MB-231 cells [2]; TM9S4_HUMAN, Member 4 of the transmembrane 9 superfamily", "value": 0.37},
      {"measurement": "T/C change ratio", "setting": "MDA-MB-231 cells [2]; TPM4_HUMAN, Tropomyosin alpha-4 chain", "value": 0.74},
      {"measurement": "T/C change ratio", "setting": "MDA-MB-231 cells [2]; TRXR1_HUMAN, Thioredoxin reductase 1 (TXNRD1), cytoplasmic", "value": 1.59},
      {"measurement": "T/C change ratio", "setting": "MDA-MB-231 cells [2]; U2AF2_HUMAN, U2AF union factor 65 kDa subunit", "value": 0.31}
    ]}
  ]
}
